From ChEMBL document CHEMBL5038625, “Application of the dual-tail approach for the design and synthesis of novel Thiopyrimidine-Benzenesulfonamide hybrids as selective carbonic anhydrase inhibitors” (Eur J Med Chem, 2022)

Tests used:
CAKI-1 = assay: Antiproliferative activity against human CAKI-1 cells assessed as cell growth inhibition at 10 uM incubated for 24 hrs by sulforhodamine B assay; assay type: functional; settings: read-out: GI
LOX IMVI = assay: Antiproliferative activity against human LOX IMVI cells assessed as cell growth inhibition at 10 uM incubated for 24 hrs by sulforhodamine B assay; assay type: functional; settings: read-out: GI
Carbonic anhydrase 2 = Carbonic anhydrase 2 (Homo sapiens, UniProt P00918); assay: Inhibition of human CA2 preincubated for 15 mins by phenol red dye based stopped flow CO2 hydration assay
Carbonic anhydrase 9 = Carbonic anhydrase 9 (Homo sapiens, UniProt Q16790); assay: Inhibition of human CA9 preincubated for 15 mins by phenol red dye based stopped flow CO2 hydration assay
UO-31 = assay: Antiproliferative activity against human UO-31 cells assessed as cell growth inhibition at 10 uM incubated for 24 hrs by sulforhodamine B assay; assay type: functional; settings: read-out: GI
PC-3 = assay: Antiproliferative activity against human PC-3 cells assessed as cell growth inhibition at 10 uM incubated for 24 hrs by sulforhodamine B assay; assay type: functional; settings: read-out: GI
NCI-H23 = assay: Antiproliferative activity against human NCI-H23 cells assessed as cell growth inhibition at 10 uM incubated for 24 hrs by sulforhodamine B assay; assay type: functional; settings: read-out: GI
MCF7 [1] = assay: Antiproliferative activity against human MCF7 cells assessed as cell growth inhibition at 10 uM incubated for 24 hrs by sulforhodamine B assay; assay type: functional; settings: read-out: GI
RXF 393 = assay: Antiproliferative activity against human RXF 393 cells assessed as cell growth inhibition at 10 uM incubated for 24 hrs by sulforhodamine B assay; assay type: functional; settings: read-out: GI
Carbonic anhydrase 1 = Carbonic anhydrase 1 (Homo sapiens, UniProt P00915); assay: Inhibition of human CA1 preincubated for 15 mins by phenol red dye based stopped flow CO2 hydration assay
SR = assay: Antiproliferative activity against human SR cells assessed as cell growth inhibition at 10 uM incubated for 24 hrs by sulforhodamine B assay; assay type: functional; settings: read-out: GI
SF-539 = assay: Antiproliferative activity against human SF-539 cells assessed as cell growth inhibition at 10 uM incubated for 24 hrs by sulforhodamine B assay; assay type: functional; settings: read-out: GI
HCT-15 = assay: Antiproliferative activity against human HCT-15 cells assessed as cell growth inhibition at 10 uM incubated for 24 hrs by sulforhodamine B assay; assay type: functional; settings: read-out: GI
HOP-92 = assay: Antiproliferative activity against human HOP-92 cells assessed as cell growth inhibition at 10 uM incubated for 24 hrs by sulforhodamine B assay; assay type: functional; settings: read-out: GI
DU-145 = assay: Antiproliferative activity against human DU-145 cells assessed as cell growth inhibition at 10 uM incubated for 24 hrs by sulforhodamine B assay; assay type: functional; settings: read-out: GI
K562 = assay: Antiproliferative activity against human K562 cells assessed as cell growth inhibition at 10 uM incubated for 24 hrs by sulforhodamine B assay; assay type: functional; settings: read-out: GI
Malme-3M = assay: Antiproliferative activity against human Malme-3M cells assessed as cell growth inhibition at 10 uM incubated for 24 hrs by sulforhodamine B assay; assay type: functional; settings: read-out: GI
Hs-578T = assay: Antiproliferative activity against human HS-578T cells assessed as cell growth inhibition at 10 uM incubated for 24 hrs by sulforhodamine B assay; assay type: functional; settings: read-out: GI
HL-60 = assay: Antiproliferative activity against human HL-60 cells assessed as cell growth inhibition at 10 uM incubated for 24 hrs by sulforhodamine B assay; assay type: functional; settings: read-out: GI
MOLT-4 = assay: Antiproliferative activity against human MOLT-4 cells assessed as cell growth inhibition at 10 uM incubated for 24 hrs by sulforhodamine B assay; assay type: functional; settings: read-out: GI
OVCAR-4 = assay: Antiproliferative activity against human OVCAR-4 cells assessed as cell growth inhibition at 10 uM incubated for 24 hrs by sulforhodamine B assay; assay type: functional; settings: read-out: GI
MCF7 [2] = assay: Antiproliferative activity against human MCF7 cells assessed as reduction in cell viability incubated for 24 hrs by sulforhodamine B assay; assay type: functional, cell-based; settings: MCF7, 24 h
KM12 = assay: Antiproliferative activity against human KM12 cells assessed as cell growth inhibition at 10 uM incubated for 24 hrs by sulforhodamine B assay; assay type: functional; settings: read-out: GI
MDA-MB-231 [3] = assay: Antiproliferative activity against human MDA-MB-231 cells assessed as reduction in cell viability incubated for 24 hrs by sulforhodamine B assay; assay type: functional, cell-based; settings: MDA-MB-231, 24 h
U-251 = assay: Antiproliferative activity against human U-251 cells assessed as cell growth inhibition at 10 uM incubated for 24 hrs by sulforhodamine B assay; assay type: functional; settings: read-out: GI
RPMI-8226 = assay: Antiproliferative activity against human RPMI-8226 cells assessed as cell growth inhibition at 10 uM incubated for 24 hrs by sulforhodamine B assay; assay type: functional; settings: read-out: GI
T47D [4] = assay: Antiproliferative activity against human T47D cells assessed as cell growth inhibition at 10 uM incubated for 24 hrs by sulforhodamine B assay; assay type: functional; settings: read-out: GI
T47D [5] = assay: Antiproliferative activity against human T47D cells assessed as reduction in cell viability incubated for 24 hrs by sulforhodamine B assay; assay type: functional, cell-based
CCRF-CEM = assay: Antiproliferative activity against human CCRF-CEM cells assessed as cell growth inhibition at 10 uM incubated for 24 hrs by sulforhodamine B assay; assay type: functional; settings: read-out: GI
NCI-H522 = assay: Antiproliferative activity against human NCI-H522 cells assessed as cell growth inhibition at 10 uM incubated for 24 hrs by sulforhodamine B assay; assay type: functional; settings: read-out: GI
SNB-75 = assay: Antiproliferative activity against human SNB-75 cells assessed as cell growth inhibition at 10 uM incubated for 24 hrs by sulforhodamine B assay; assay type: functional; settings: read-out: GI
UACC-62 = assay: Antiproliferative activity against human UACC-62 cells assessed as cell growth inhibition at 10 uM incubated for 24 hrs by sulforhodamine B assay; assay type: functional; settings: read-out: GI
A549 = assay: Antiproliferative activity against human A549 cells assessed as cell growth inhibition at 10 uM incubated for 24 hrs by sulforhodamine B assay; assay type: functional; settings: read-out: GI
MDA-MB-231 [6] = assay: Antiproliferative activity against human MDA-MB-231 cells assessed as cell growth inhibition at 10 uM incubated for 24 hrs by sulforhodamine B assay; assay type: functional; settings: read-out: GI
HCT-116 = assay: Antiproliferative activity against human HCT-116 cells assessed as cell growth inhibition at 10 uM incubated for 24 hrs by sulforhodamine B assay; assay type: functional; settings: read-out: GI
NCI-H226 = assay: Antiproliferative activity against human NCI-H226 cells assessed as cell growth inhibition at 10 uM incubated for 24 hrs by sulforhodamine B assay; assay type: functional; settings: read-out: GI
SN12C = assay: Antiproliferative activity against human SN12C cells assessed as cell growth inhibition at 10 uM incubated for 24 hrs by sulforhodamine B assay; assay type: functional; settings: read-out: GI

Sequence of Carbonic anhydrase 1 (P00915 whole entry): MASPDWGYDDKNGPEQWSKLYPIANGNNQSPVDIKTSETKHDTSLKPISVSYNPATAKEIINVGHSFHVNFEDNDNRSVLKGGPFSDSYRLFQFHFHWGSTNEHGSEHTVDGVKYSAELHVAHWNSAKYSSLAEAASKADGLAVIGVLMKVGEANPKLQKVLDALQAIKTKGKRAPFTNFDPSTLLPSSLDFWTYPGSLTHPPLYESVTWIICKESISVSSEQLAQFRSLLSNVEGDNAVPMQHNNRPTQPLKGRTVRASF

Row | Compound | inhibition of growth at 10 µM (CAKI-1) [%] | inhibition of growth at 10 µM (LOX IMVI) [%] | Ki (Carbonic anhydrase 2) [µM] | Ki (Carbonic anhydrase 9) [µM] | inhibition of growth at 10 µM (UO-31) [%] | inhibition of growth at 10 µM (PC-3) [%] | inhibition of growth at 10 µM (NCI-H23) [%] | inhibition of growth at 10 µM (MCF7 [1]) [%] | Ki (Carbonic anhydrase 1) [µM] | inhibition of growth at 10 µM (SR) [%] | inhibition of growth at 10 µM (SF-539) [%] | inhibition of growth at 10 µM (HCT-15) [%] | inhibition of growth at 10 µM (HOP-92) [%] | inhibition of growth at 10 µM (K562) [%] | also measured
1 | Cc1ccc(-c2nc(SCC(=O)c3ccccc3)nc(Nc3cccc(S(N)(=O)=O)c3)c2C#N)cc1 | 13.6 | 11.3 | > 20 | 7.64 | 24.4 | 6.2 | 5.21 | 11.9 | > 20 | 7.6 | 14.1 | 5.35 | 65.2 | – | inhibition of growth at 10 µM (RXF 393): 12.6%
2 | Cc1ccc(-c2nc(SCC(=O)c3ccc(Br)cc3)nc(Nc3ccc(S(N)(=O)=O)cc3)c2C#N)cc1 | 13.7 | 11.8 | > 20 | 8.74 | 22.4 | – | 6.49 | 16.5 | > 20 | 11.4 | 17.1 | 11.3 | 40.4 | 8 | inhibition of growth at 10 µM (DU-145): 47.5%; inhibition of growth at 10 µM (Malme-3M): 8.67%; inhibition of growth at 10 µM (Hs-578T): 14.3%; inhibition of growth at 10 µM (HL-60): < 5%
3 | NS(=O)(=O)c1cccc(Nc2cc(-c3ccccc3)nc(SCC(=O)c3ccccc3)n2)c1 | – | – | – | 0.724 | – | – | – | – | – | – | – | – | – | – | –
4 | NS(=O)(=O)c1cccc(Nc2cc(-c3ccccc3)nc(SCC(=O)c3ccc(Br)cc3)n2)c1 | – | – | – | 0.525 | – | – | – | – | – | – | – | – | – | – | –
5 | COc1ccc(C(=O)CSc2nc(Nc3cccc(S(N)(=O)=O)c3)cc(-c3ccccc3)n2)cc1 | 7.16 | – | > 20 | 0.3 | 16.4 | 15.8 | – | – | > 20 | 23.7 | – | 13.8 | – | 12.7 | inhibition of growth at 10 µM (MOLT-4): 26.2%; inhibition of growth at 10 µM (OVCAR-4): 12.2%; IC50 (MCF7 [2]): 30.9 µM; inhibition of growth at 10 µM (Malme-3M): 7.42%; inhibition of growth at 10 µM (KM12): 6.88%; IC50 (MDA-MB-231 [3]): 42.5 µM; inhibition of growth at 10 µM (U-251): 6.41%; inhibition of growth at 10 µM (RPMI-8226): 6.7%; inhibition of growth at 10 µM (T47D [4]): 20.2%; IC50 (T47D [5]): 28 µM; inhibition of growth at 10 µM (CCRF-CEM): 16.9%; inhibition of growth at 10 µM (NCI-H522): 6.62%; inhibition of growth at 10 µM (SNB-75): 12.3%; inhibition of growth at 10 µM (UACC-62): 8.31%; inhibition of growth at 10 µM (A549): 7.98%; inhibition of growth at 10 µM (MDA-MB-231 [6]): 6.45%
6 | COc1ccc(C(=O)CSc2nc(Nc3ccc(S(N)(=O)=O)cc3)c(C#N)c(-c3ccc(C)cc3)n2)cc1 | – | – | – | 8.71 | – | – | – | – | – | – | – | – | – | – | –
7 | Cc1ccc(-c2nc(SCC(=O)c3ccc(Br)cc3)nc(Nc3cccc(S(N)(=O)=O)c3)c2C#N)cc1 | 20 | 11.8 | – | 0.0887 | 36.7 | 13.4 | 7.38 | 7.76 | – | 11.3 | 17.5 | 5.65 | 67.2 | 6.32 | inhibition of growth at 10 µM (HCT-116): 8.06%; inhibition of growth at 10 µM (MOLT-4): 9.7%; inhibition of growth at 10 µM (NCI-H226): 12.7%; IC50 (MCF7 [2]): > 100 µM; IC50 (MDA-MB-231 [3]): > 100 µM; inhibition of growth at 10 µM (SN12C): 5.02%; inhibition of growth at 10 µM (RXF 393): 17.6%; inhibition of growth at 10 µM (T47D [4]): 6.01%; IC50 (T47D [5]): 60 µM; inhibition of growth at 10 µM (CCRF-CEM): 6.1%; inhibition of growth at 10 µM (MDA-MB-231 [6]): 6.75%
